In US20250268894A1, “MACROCYCLE COMPOUNDS FOR THE TREATMENT OF CANCER” (Hoffmann-La Roche Inc., priority 2022, published 2025):

What was measured:
[1] = test system: Miapaca-2 KRAS G12C + A59T cells; assay: Stable KRAS mutant cell line viability assay (CellTiter-Glo), G12C + A59T; type: cell-based; settings: Homo sapiens, MIA PaCa-2, 72 h, Miapaca-2 mutant cells, 3 d
Excerpt: (§1) The aim of the study was to determine the potency and efficacy of compounds for cell proliferation using CellTiter-Glo® (CTG) Luminescent Cell Viability Assay (Promega Corp., Madison, WI). We cloned […] KRAS^G12C variant sequences with secondary mutations (V8A, V9Y, S17E, T58I, A59T, S65W, R68S, D69P, M72I, D92R, H95N, Y96D, Q99F, Q99W, Y96H, and F156L) into the Miapaca-2. Totally 14 stable Miapaca-2 mutant cell lines were established through lentivirus infection. For the cell viability assay, cells were dosed with compounds in a 9-point dose-response using a 4 fold dilution series at a top dose of 10 μM. KRAS mutant cells were maintained in DMEM+10% FBS+2.5% HI Horse serum+1% PS+1 μg/mL Puromycin and seeded into 96-well plates at 800-1,500 cells per well 24 h before compound addition and then incubated with compound for 3 d before assaying viability (CellTiter-Glo, Promega). Assays were performed in biological duplicates. Nonlinear regression curves were fitted using Xfit. IC50 (absolute IC50) is the dose at which the estimated viability is 50% relative to untreated wells.

[2] = test system: Miapaca-2 KRAS G12C + D60P cells; assay: Stable KRAS mutant cell line viability assay (CellTiter-Glo), G12C + D60P; type: cell-based; settings: Homo sapiens, MIA PaCa-2, 72 h, Miapaca-2 mutant cells, 3 d
Excerpt: as §1

human hepatocytes = assay: Human hepatocyte stability assay; type: in vitro ADME; settings: 1 μM compound, human hepatocyte suspension 1×10^6 cells/mL
Protocol: The hepatocyte stability assay measures the rate of disappearance of a compound from incubations with cryopreserved suspension hepatocytes from human. Positive controls, including Midazolam, Raloxifene and Dextromethorphan, are included in every experiment. Incubations consist of 1 μM tested compound and suspension of human hepatocytes (1×10^6 cells/mL) in supplemented Williams' E Medium with 10% FBS and 0.5% Penicillin-streptomycin. The hepatocyte suspension was incubated with intermittent shaking 900 rpm at 37° C., in a 5% CO2 incubator. The reaction was stopped by adding methanol containing internal standard (2 μM Tolbutamide) at 2, 10, 20, 40, 60 and 120 minutes after compound addition, depletion of the parent compound was monitored by LC-MS/MS analysis.

[3] = test system: Miapaca-2 KRAS G12C + S17E cells; assay: Stable KRAS mutant cell line viability assay (CellTiter-Glo), G12C + S17E; type: cell-based; settings: Homo sapiens, MIA PaCa-2, 72 h, Miapaca-2 mutant cells, 3 d
Excerpt: as §1

KRAS G12V-BRAF complex = KRAS G12V-BRAF complex (Homo sapiens (Human), UniProt P01116+P62937, G12V); assay: KRAS-BRAF with CYPA (500 nM) interaction assay (TR-FRET), G12V; type: biochemical
Summary of the method: (§2)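 TR-FRET read of compound- or compound-CYPA-driven disruption of BRAF binding by KRAS G12C, G12D or G12V, with CYPA at 500 nM. Compounds tested as 16-point 3-fold dilutions from 10 μM final, incubated 3 hours. Ex320/Em 665/615 nm ratio drop relative to DMSO wells marks disruption.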

[4] = test system: NCI-H358 cells (KRAS G12C); assay: Cell viability assay (Cell Counting Kit-8), KRAS G12C; type: cell-based; settings: Homo sapiens, NCI-H358, 72 hrs
Summary of the method: (§3)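 Cells seeded overnight at 5,000/well (NCI-H358) or 2,000/well (AGS, SW620), then exposed to compound for 72 hrs at 0.5% DMSO final. CCK-8 read as OD450 minus OD650 after 2 hrs; IC50 from 4-parameter sigmoidal fit.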

SW620 cells (KRAS G12V) = assay: Cell viability assay (Cell Counting Kit-8), KRAS G12V; type: cell-based; settings: Homo sapiens, SW-620, SW620, 72 hrs
Summary of the method: as §3

KRAS G12D-BRAF complex = KRAS G12D-BRAF complex (Homo sapiens (Human), UniProt P01116+P62937, G12D); assay: KRAS-BRAF with CYPA (500 nM) interaction assay (TR-FRET), G12D; type: biochemical
Summary of the method: as §2

[5] = test system: Miapaca-2 KRAS G12C + H95N cells; assay: Stable KRAS mutant cell line viability assay (CellTiter-Glo), G12C + H95N; type: cell-based; settings: Homo sapiens, MIA PaCa-2, 72 h, Miapaca-2 mutant cells, 3 d
Excerpt: as §1

[6] = Single dose pharmacokinetics (PK) study in female BALB/c mice; type: in vivo
Protocol: The purpose of this study was to determine the pharmacokinetics of selected compounds following single intravenous bolus or oral gavage administration in female BALB/c mice. Briefly, two groups of female BALB/c mice (available from Shanghai Lingchang Biotechnology Co., Ltd)(N=3/group) were treated with a single dose of compound intravenously at 3 mg/kg (IV) or orally at 30 mg/kg (PO). Blood samples were collected at 5 min (only for IV), […], 30 min, 1 h, 2 h, 4 h, 7 h and 24 h post-dose. Blood samples were placed on ice until centrifugation to obtain plasma samples. The concentration of compound in plasma samples was determined using LC-MS/MS method. The pharmacokinetic parameters were calculated by non-compartmental analysis.

[7] = test system: Miapaca-2 KRAS G12C + D92R cells; assay: Stable KRAS mutant cell line viability assay (CellTiter-Glo), G12C + D92R; type: cell-based; settings: Homo sapiens, MIA PaCa-2, 72 h, Miapaca-2 mutant cells, 3 d
Excerpt: as §1

[8] = test system: Miapaca-2 KRAS G12C + F156L cells; assay: Stable KRAS mutant cell line viability assay (CellTiter-Glo), G12C + F156L; type: cell-based; settings: Homo sapiens, MIA PaCa-2, 72 h, Miapaca-2 mutant cells, 3 d
Excerpt: as §1

[9] = mouse, 30 mg/kg, po, female BALB/c mice, plasma

Sequence of KRAS G12D-BRAF complex (P01116-2 other isoform, or with tags, fused parts or gaps G12D): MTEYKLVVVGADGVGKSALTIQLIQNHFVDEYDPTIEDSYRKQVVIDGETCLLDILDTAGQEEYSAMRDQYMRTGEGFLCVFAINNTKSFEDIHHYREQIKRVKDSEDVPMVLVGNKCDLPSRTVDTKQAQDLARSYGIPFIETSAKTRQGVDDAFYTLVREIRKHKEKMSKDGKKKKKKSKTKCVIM
Sequence of KRAS G12D-BRAF complex (P62937 whole entry): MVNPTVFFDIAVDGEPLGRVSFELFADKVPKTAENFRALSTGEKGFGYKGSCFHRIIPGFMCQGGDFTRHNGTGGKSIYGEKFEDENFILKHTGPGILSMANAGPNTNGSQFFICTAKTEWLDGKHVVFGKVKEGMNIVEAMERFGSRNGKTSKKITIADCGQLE
Sequence of KRAS G12V-BRAF complex (P01116-2 other isoform, or with tags, fused parts or gaps G12V): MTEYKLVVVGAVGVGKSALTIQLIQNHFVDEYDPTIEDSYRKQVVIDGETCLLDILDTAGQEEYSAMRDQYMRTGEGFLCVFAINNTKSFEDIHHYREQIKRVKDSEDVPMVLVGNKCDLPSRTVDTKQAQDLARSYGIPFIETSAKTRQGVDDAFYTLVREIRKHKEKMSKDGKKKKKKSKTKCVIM
Sequence of KRAS G12V-BRAF complex (P62937 whole entry): as the sequence (P62937 whole entry) above

Compound: CO[C@@H](C)c1ncc(N2CCN(CC(F)(F)F)CC2)cc1-c1c2c3cc(ccc3n1CC(F)(F)F)-c1csc(n1)C[C@H](NC(=O)[C@H](C(C)C)N(C)C(=O)N1CCOCC1)C(=O)N1CCC[C@H](N1)C(=O)OCC(C)(C)C2 (atropisomer, axis not shown; (M)) [Example 6]
- IC50 [1]: 11 nM
- IC50 [2]: 8 nM
- CL_hep (Human) (human hepatocytes): <2.4 mL/min/kg
- IC50 [3]: 5 nM
- IC50 (KRAS G12V-BRAF complex): 61 nM
- IC50 [4]: 5 nM
- IC50 (SW620 cells (KRAS G12V)): 2 nM
- IC50 (KRAS G12D-BRAF complex): 71 nM
- IC50 [5]: 5 nM
- F ([6]; 30 mg/kg, po, female BALB/c mice): 29.7%
- AUC0-last compared with compound A555 ([6]; 30 mg/kg, po, mouse model): 15 folds
- Cmax compared with compound A555 ([6]; 30 mg/kg, po, mouse model): ~7 folds
- clearance ([6]; mouse, 3 mg/kg, iv, female BALB/c mice, plasma): 3.7 mL/min/kg
- AUC(0-t) [6, 9]: 36800 ng·h/mL
- Cmax [6, 9]: 4890 ng/mL
- IC50 [7]: 5 nM
- IC50 [8]: 8 nM
